“Also recorded” adds a separate entry of the source.
Columns and labels:
[1] = system: mixture of heparitinase I, II, and III; test: Heparitinase enzyme inhibition study, heparin disaccharides analysed by HPLC; type: biochemical; conditions: 10% w/w OSCS in heparin (90% heparin + 10% w/w OSCS)
Experimental: (§1) Once it was established that enzyme action causes the fluorescence probe to recover from being quenched, a heparitinase enzyme inhibition study was carried out in the presence of OSCS-contaminated heparin. For this study, a mixture of heparitinase I, II, and III was incubated with (a) heparin (200 μg), (b) heparin with 10% w/w chondroitin sulfate A and C and (c) heparin with 10% w/w OSCS. The resulting oligosaccharides were then analyzed by analytical HPLC. […] The enzyme activity on the nanosensor should be maximal at low OSCS concentration and minimal at high OSCS concentration. Consequently, the fluorescence quenching of the dye should be minimal at low OSCS concentrations (and measured fluorescence should be high) and quenching should be maximal at high OSCS concentrations (and measured fluorescence should below).

heparitinase = test: Au-heparin-dye nanosensor fluorescence assay with heparitinase and OSCS-spiked heparin (96-well plate); type: biochemical; conditions: in the presence of 10% w/w OSCS
Experimental: as §1
In order to develop an analytical method and kit for determining contamination in heparin, serial dilutions of OSCS were performed at log increment concentrations from 0.1 μg/μL to 0.1 femtogram (fg)/μL. Next, standard heparin solutions (10 μg) were spiked serially with OSCS solutions from 1 μg (10% w/w) to 0.1 fg (10^−9% w/w) of OSCS “contamination” resulting in 11 separate tests. Heparin (10 μg) and OSCS (10 μg) were utilized as positive and negative controls, respectively. […]

With oversulfated chondroitin sulfate [OSCS] as the substance, how does the “inhibition of heparitinase enzyme activity (HPLC profile of heparin disaccharides)” value [1] read?
Its value is “completely inhibits the enzyme; also recorded: powerful inhibitor”.

And the “heparitinase action on Au-heparin-dye nanosensor (fluorescence quenching)” value (heparitinase)?
Its value is “heparitinases could not act on the Au-heparin-dye nanosensor and fluorescence quenching was maintained”.

Source: patent US20160201112A1, “NANOSENSOR FOR DETECTING THE ACTIVITY OF GLYCOSAMINOGLYCAN-CLEAVING ENZYMES AND USES THEREOF” (VIRGINIA COMMONWEALTH UNIVERSITY, priority 2013, published 2016)
